One experiment has as its system Molm13. Nature of the experiment: cells. Particulars: Homo sapiens, MOLM-13; BV6 + zVAD; inhibition of induced cell death. Set-up: species or system Jurkat FADD-/-, HT-29, MV4-11 or Molm13; protection from induced necroptosis, cell death by PI staining and flow cytometry. Here is the method: Figure 2 Sorafenib inhibits TNF-induced RIPK1-dependent cell death in both murine and human cell lines and rescues AML cells from Smac mimetic-induced necroptosis. […] (c,d) HT-29 and Jurkat FADD−/− cells were pretreated for 1 h with DMSO, Nec-1 or Sorafenib (concentrations as indicated) and stimulated for 6 h with 30 ng/ml hTNF, 1 μM BV6 and 30 μM zVAD (HT-29) or stimulated for 10 h with 100 ng/ml hTNF (Jurkat FADD−/−). (a-d) Data were normalized to DMSO-treated control cells and represent the mean value±S.E.M. of three independent experiments. Toxic concentrations were removed from the analysis. L929sAhFas and MEF cells were stained with Hoechst and PI and percentage PI-positive nuclei was determined using high-content image analysis (BD pathway Bioimager). For HT-29 and Jurkat FADD−/− cells, cell death was determined by PI staining and flow cytometry. […] Cell death in AML cells was determined by PI staining and flow cytometry. Mean and S.D. of three independent experiments performed in triplicate are shown Supplementary materials and methods Immunoblotting. After treatments, cells were washed twice with PBS and lysed with Laemmli buffer (2x) directly or with NP-40 lysis buffer (150 mM NaCl, 1% NP-40, 10% glycerol, 10 mM Tris-HCl pH 8) supplemented with EDTA-free protease inhibitor cocktail tablets (Roche Diagnostics, Basel, Switzerland, #11873580001) and phosphatase inhibitor cocktail tablets (Roche Diagnostics, #04906837001). After lysis with NP-40 lysis buffer, lysates were kept 10 minutes on ice and centrifugated in a microcentrifuge (10 min, 13.000 rpm, 4°C). Supernatant was used for SDS-PAGE and immunoblotting. FACS analysis. FACS analysis was used to measure dying HT-29, Jurkat FADD-/- and AML cells. Treated HT-29 cells were harvested, washed with PBS and incubated with Annexin V binding buffer (BD Biosciences, 556454) containing 7-AAD and Annexin V-FITC for 15 min according to the manufacturer’s protocol. FACSCalibur^TM Flow Cytometer (BD Biosciences) and CellQuest Pro software were used to perform experiments and analyze data respectively.

Another experiment has as its system L929sAhFas. Nature of the experiment: cells. Set-up: high-content necroptosis screen, percentage PI-positive nuclei as percent of DMSO plus stimulus control. Conditions: mTNF-induced cell death, validation screen; read-out: Validation screen IC50 (µM) (TNF). The text has this:
To identify novel inhibitors or regulators of necroptosis, 500 small compounds from libraries targeting autophagy, kinases, phosphatases, proteases and redox balance were screened for their ability to block TNF-induced necroptosis in murine L929sAhFas cells. Three conditions were used to induce necroptosis in L929 cells: TNF alone, TNF+TAK1 inhibitor (TAK1i) and TNF+zVAD-fmk, a pan-caspase inhibitor. Inhibition of TAK1 or caspases sensitizes to necroptosis.[13], [32] Necroptosis, measured as the percentage of PI-positive nuclei normalized to the plate-specific DMSO control, was determined for each compound (Supplementary Figure 1A). Z’ values for the TNF- and TNF+TAK1i-induced cell death assay were 0.498 and 0.919, respectively (Supplementary Figures 2A and B), indicating good assay performance. Sorafenib was identified as an effective inhibitor of both TNF- and TNF+TAK1i-induced necroptosis (Figure 1a). […] In an independent screening with 437 FDA-approved drugs and TNF+zVAD-fmk as necroptosis trigger in L929 cells (Supplementary Figure 1B), Sorafenib was also shown to be a potent inhibitor (Figure 1b). […] After compound treatment, L929sAhFas (a) or L929 (b) cells were stimulated with mTNF (T), mTNF+Tak1i (TiT) or mTNF+zVAD (zVT) (Supplementary Figure 1A and B). (a) Cell death percentage (% PI-positive nuclei) or cell loss was calculated as percent of control (DMSO+stimulus). Green points marked by the green dotted line represent a selection of kinase inhibitors from the screening on L929sAhFas cells (Supplementary Table 1), that are only slightly protective in the TNF-stimulated condition. (b) Cell loss (luminescence-based readout for ATP) was calculated as percent of control (DMSO+stimulus). […] In stimulated conditions, % PI-positive nuclei was determined as % of DMSO control. Data represent mean values±S.E.M. of two independent experiments. Cells were stained with Hoechst and PI and percentage PI-positive nuclei was determined using high-content image analysis (BD pathway Bioimager). (d) L929sAhFas cells were treated with Sorafenib (concentration as indicated) for 24 h. Then, stimulus was removed, 50 cells/condition seeded and colonies counted with crystal violet staining after 10 days incubation. Quantification was performed using ImageJ. n=2, a representative experiment is shown Legends supplementary figures Supplementary Figure S1. Schemes of workflow screening assays in L929 cell lines. (A) Scheme of the workflow of a high-content screening assay on L929sAhFas cells using mTNF (T) and mTNF+Tak1i ((5Z)-7-Oxozeaenol) (TiT) to induce necroptotic cell death. Nec-1 and zVAD-fmk were used as protective and sensitizing benchmarks, respectively, on all plates. (B) Scheme of the workflow of a CellTiter-Glo luminescent cell viability screening assay on L929 cells using mTNF+zVAD (zVT) to induce necroptotic cell death. Supplementary Figure S2. Z’ calculation for cell death screening assays in L929 cells. (A) Z’ calculation for cell death screening assay (Fig. 1A) in mTNF-stimulated L929sAhFas cells. (B) Z’ calculation for cell death screening assay (Fig. 1A) in L929sAhFas cells stimulated with mTNF + Taki.

Molecules are shown by their SMILES. Structures can show the parent of a compound that is named as a salt. Some results are limits rather than exact numbers.

With `CNC(=O)c1cc(Oc2ccc(NC(=O)Nc3ccc(Cl)c(C(F)(F)F)c3)cc2)ccn1` [Sorafenib tosylate], the IC50 was not above 0.03 µM in the experiment on Molm13 and 3.25 µM in the experiment on L929sAhFas.

The values are drawn from publication PMC5520944 (Cell Death & Disease, 2017).
